According to US20240374550A1, “GINGERENONE A PRODRUGS AND METHODS OF USE” (The U.S.A., as Represented by the Secretary, Department of …, priority 2022, published 2024):
Entries after “also recorded” stand apart in the source; their conditions may differ.

Columns and labels:
[1] = test system: senescent WI-38 fibroblasts; experiment: MTT cell viability assay, IR-induced senescent WI-38 fibroblasts; type: cell-based, human; settings: for senolytic activity (ability to selectively decrease cell viability of senescent cells): 72 h, ginger components at 100 μM, 6-shogaol 3.6 μM, 8-shogaol 33 μM, 6-gingerol 20 μM; for senescent cell viability: D+Q (dasatinib 250 nM + quercetin 10 μM), gingerenone A 20 μM, 6-shogaol 72.4 nM
Description: Cell culture and treatments: WI-38 human diploid fibroblasts (HDFs) were cultured in Dulbecco's modified Eagle's medium (DMEM) supplemented with 10% heat-inactivated fetal bovine serum (FBS), penicillin and streptomycin, and non-essential amino acids at 37° C. in a 5% CO2 incubator. HDFs were rendered senescent by exposure to 10 Gy of ionizing radiation (IR) and then cultured for an additional ten days. Proliferating and senescent WI-38 cells were seeded in triplicate overnight at 2×10^5 cells/well (in 6 well plates) to achieve ˜60% confluence by the next day. Cells were then treated with the extracts for times indicated. […]
MTT cell viability: The MTT assay (Bio Vision Milpitas, CA) was carried out following the manufacturer's protocol. Briefly, the media was gently removed from each well and 50 μl of serum-free medium+50 μl of Solution A were added to each well. The plates were incubated at 37° C. for MTT reduction into formazan for 3 h. Next, 150 μl Solution B was added to each well and the plate was covered with foil and shaken at 600 rpm for 15 min. The absorbance was measured at 590 nm using Enspire, Perkin Elmer Multimode plate reader. […]
WI-38 fibroblasts were rendered senescent by exposure to ionizing radiation (IR, 10 Gy) and cultured for an additional 10 days. […] Data represent the means and standard error from three biological replicates. The major components of ginger extract, namely 6-gingerol, 8-gingerol, 10-gingerol, 6-shogaol, 8-shogaol, gingerenone A, and zingerone, were screened for their ability to selectively decrease cell viability of senescent cells using the MTT assay (FIG. 10A).

[2] = test system: proliferating WI-38 fibroblasts; experiment: MTT cell viability assay, proliferating WI-38 fibroblasts; type: cell-based, human; settings: 48 h; D+Q (dasatinib 250 nM + quercetin 10 μM), gingerenone A 20 μM, 6-shogaol 72.4 nM
Description: Cell culture and treatments: WI-38 human diploid fibroblasts (HDFs) were cultured in Dulbecco's modified Eagle's medium (DMEM) supplemented with 10% heat-inactivated fetal bovine serum (FBS), penicillin and streptomycin, and non-essential amino acids at 37° C. in a 5% CO2 incubator. HDFs were rendered senescent by exposure to 10 Gy of ionizing radiation (IR) and then cultured for an additional ten days. Proliferating and senescent WI-38 cells were seeded in triplicate overnight at 2×10^5 cells/well (in 6 well plates) to achieve ˜60% confluence by the next day. Cells were then treated with the extracts for times indicated.
In 24-well plates, cells were treated with multiple dilutions (1:200 and 1:500) of Harpagophytum procumbens (Devil's Claw) (herb to menstruum ratio, 1:3), Uncaria tomentosa (Cat's Claw) (herb to menstruum ratio, 1:3), Zingiber officinale Rosc. […]
MTT cell viability: The MTT assay (Bio Vision Milpitas, CA) was carried out following the manufacturer's protocol. […] The absorbance was measured at 590 nm using Enspire, Perkin Elmer Multimode plate reader.
Four plant extracts were screened for senolytic activity, including extracts from Harpagophytum procumbens (Devil's Claw), Uncaria tomentosa (Cat's Claw), Zingiber officinale Rosc. […] In FIG. 8B, the impact on ginger extract on proliferating and senescent cells on cell survival was assessed by the MTT cell viability assay. […]

[3] = test system: SASP cytokines and chemokines secreted by senescent WI-38 fibroblasts; experiment: Secreted protein analysis (ELISA, Luminex multiplex, V-PLEX) of SASP factors; type: cell-based, human; settings: 24 h
Description: Secreted protein analysis-ELISA, Luminex Multiplex and V-PLEX: Media was collected at the earliest timepoint (24 h after treatments) to avoid cell death that could interfere with the assay. The media was centrifuged at 1000×g for 5 min to remove debris. The secretion of IL-6 was measured by the Quantikine ELISA Kit (R&D systems) and the expression of pro-inflammatory cytokines and chemokines [IL-6, TNFα, CCL2 (MCP-1), IL-8, IFNß] was also assessed by multiplex assays (customized Luminex plate, R&D) according to the manufacturer's instructions. The V-PLEX Plus Proinflammatory Panel 1 Human Kit and the Chemokine Panel 1 preparation and detection were carried out following the manufacturer's protocol (Mesoscale Diagnostics) using >80% confluency of proliferating or senescent cells on 24-well plates. Briefly, different concentrations of standards and samples were added to the plates, and they were incubated for 2 h on a microplate shaker. The plates were washed, and the corresponding detection antibody mixture was added to each well and incubated for 1 h with shaking. The plates were washed twice then Read buffer was added to each well. The plates were read on the MESO Quickplex SQ 120 (MSD, Rockville, MD) and protein concentrations were determined using MSD Discovery workbench 4.0. The effects of gingerenone A, 6-shogaol and D+Q on cytokines and chemokines that are known to be part of the senescence-associated secretory phenotype (SASP) were tested. WI-38 fibroblasts were rendered senescent by exposure to ionizing radiation (IR, 10 Gy) and cultured for an additional 10 days. Cells were then treated with gingerenone A (20 μM) and 6-shogaol (72.4 nM) and incubated for 24 h. CCL-2 (MCP-1) and IL-10 were measured using the Bio-plex (Multiplex); IL6 was measured using Quantikine IL-6 (R&D) (FIG. 12A). Data were normalized to cell number/total protein content. Data in graphs represent the means and standard error from three biological replicates. […] Ratios of cleaved pro-caspase 3 to total caspase 3, normalized to ACTB levels, are shown as relative to control proliferating cells. Cytokines (FIG. 13A) and chemokines (FIG. 13B) were measured using the V-plex panel (MSD) after treatment for 24 h with the indicated drugs. Relative secretion was measured as pg/ml vs control normalized on TE. Data in the graphs represent the means and standard error from three biological replicates.

[4] = test system: p53, Bcl-XL, cleaved caspase-3 in proliferating and senescent WI-38 fibroblasts; experiment: Western blot protein analysis (p53, Bcl-XL, cleaved caspase-3); type: cell-based, human; settings: 48 h, senescent cells
Description: Protein analysis: Cells were lysed in RIPA lysis buffer (Pierce, ThermoFisher) containing protease and phosphatase inhibitors (Roche) and incubated on ice for 10 min. The lysates were then sonicated for 5 min and centrifuged for 10 min at 4° C. to remove the insoluble fraction. The remaining supernatant was the whole-cell lysate. Lysates were separated by SDS-polyacrylamide gel electrophoresis (SDS-PAGE) and transferred onto nitrocellulose membranes (Biorad). Incubations with primary antibodies recognizing p21, p53, Beta-Actin (ACTB) (Santa Cruz Biotechnology), as well as caspase-3 (Abcam) and Bcl-XL (Cell Signaling) were followed by incubations with the appropriate secondary antibodies conjugated with horseradish peroxidase (GE Healthcare). Signals were developed using Enhanced Chemiluminescence (ECL) and acquired by using the ChemiDoc MP Imaging System (BioRad).
The effects of gingerenone A, 6-shogaol and D+Q on cytokines and chemokines that are known to be part of the senescence-associated secretory phenotype (SASP) were tested. WI-38 fibroblasts were rendered senescent by exposure to ionizing radiation (IR, 10 Gy) and cultured for an additional 10 days. Cells were then treated with gingerenone A (20 μM) and 6-shogaol (72.4 nM) and incubated for 24 h. CCL-2 (MCP-1) and IL-10 were measured using the Bio-plex (Multiplex); IL6 was measured using Quantikine IL-6 (R&D) (FIG. 12A). Data were normalized to cell number/total protein content. Data in graphs represent the means and standard error from three biological replicates. […] Ratios of cleaved pro-caspase 3 to total caspase 3, normalized to ACTB levels, are shown as relative to control proliferating cells. Cytokines (FIG. 13A) and chemokines (FIG. 13B) were measured using the V-plex panel (MSD) after treatment for 24 h with the indicated drugs. Relative secretion was measured as pg/ml vs control normalized on TE. Data in the graphs represent the means and standard error from three biological replicates.
To determine whether gingerenone A and 6-shogaol might influence the apoptotic pathway, their effect on the levels of cleaved caspase-3 (pro-apoptotic marker), and Bcl-XL (anti-apoptotic protein) (FIG. 12B) was tested.

[5] = test system: circulating cytokines/chemokines in serum; experiment: Chronic administration, serum cytokines/chemokines; type: in vivo, C57BL/6JN mice; settings: GinA 10 mg/kg/day, modGinA 27 mg/kg/day, 10 weeks
Description: (§1) A chronic administration of GinA (10 mg/kg/day; 1.8 mg/mL) and modGinA (27 mg/kg/day, 4.8 mg/mL) or vehicle (high oleic sunflower oil) was carried out daily for 10 weeks in C57BL/6JN mice (79-80 weeks old). The serum was analyzed for circulating levels of cytokines/chemokines during treatment (9th week) and 10 days after cessation of drug administration. […] FIGS. 16A and 16B show circulating levels of IL-5 in serum during treatment (9 weeks; FIG. 16A) and after treatment (FIG. 16B) with daily oral administration of 10 mg/kg of GinA or 27 mg/kg of modGinA. IL-5 was significant in post treatment using the unadjusted Kruskal-Wallace test between the three groups (vehicle, GinA and modGinA) and unadjusted unpaired t-test between either group and vehicle and during treatment using unadjusted unpaired t-test in the modGinA treatment group.

[6] = test system: circulating metabolites and lipid species in serum; experiment: Chronic administration, serum metabolomic and lipid analysis; type: in vivo, C57BL/6J male mice; settings: daily oral GinA 10 mg/kg or modGinA 27 mg/kg, at 9 weeks, compared to vehicle
Description: as §1
Additionally, modGinA administration increased circulating levels of multiple DHA- and EPA-containing lipid species, including phospholipids and cholesterol esters during treatment.

in vivo = settings: male, C57BL/6J, mouse, po, 10 mg/kg
Description: Gingerenone A Quantification: The analysis of Gingerenone A, EPA and DHA was accomplished using a Phenomencx® Security Guard® C18 column (4 x3 mm ID, Phenomenex, Torrance, CA) and a Waters™ Xbridge® C18 3.5 μm column (2.1 mm×100 mm, Waters Corporation, Milford, MA). The mobile phase consisted of 5 mM ammonium formate and 0.1% formic acid as component A and acetonitrile as component B. A linear gradient was run as follows: 0 min 10% B; 1 min 10% B, 5 min 90% B; 10 min 90% B; 10.1 min 10% B at a flow rate of 0.2 mL/min, with an oven temperature at 40° C. The total run time was 15 min per sample. […] For DHA, the TIS compound parameter settings (declustering potential, collision energy and cell exit potential) for MRM was −135 V, —14 V and −13 V and for naringenin MRM was −100 V, —24 V and −10 V, and MRM2 was −100V, —33 V and −10 V. The data were acquired and analyzed using Analyst version 1.4.2 (Applied Biosystems). The relative quantitation of gingerenone A, EPA and DHA was accomplished by using the area under the curves. […] For the quantitation of gingerenone A, a seven-point calibration curve (12.5 to 0.097 ng/ml) was carried out. […]
The peak areas in circulating gingerenone A levels were measured as described above in the Methods section.

Structure (SMILES): CCCCC[C@H](O)CC(=O)CCc1ccc(O)c(OC)c1 [6-gingerol]
- senolytic activity (ability to selectively decrease cell viability of senescent cells) [1]: only 6-shogaol and gingerenone A displayed senolytic activity

Structure (SMILES): CCCCC/C=C/C(=O)CCc1ccc(O)c(OC)c1 [6-shogaol]
- senescent cell viability ([1]; 48 h): moderate degree of cell death
- senolytic activity (ability to selectively decrease cell viability of senescent cells) [1]: displayed senolytic activity
- effect on proliferating cells [2]: significant increase
- changes in any of the cytokines and chemokines measured ([3]; 72.4 nM): did not induce major changes
- expression of anti-apoptotic protein Bcl-XL [4]: reduced
- levels of pro-apoptotic protein cleaved caspase-3 [4]: increase

Structure (SMILES): CCCCCCC[C@H](O)CC(=O)CCc1ccc(O)c(OC)c1 [8-gingerol]
- senolytic activity (ability to selectively decrease cell viability of senescent cells) [1]: only 6-shogaol and gingerenone A displayed senolytic activity

Structure (SMILES): CCCCCCC/C=C/C(=O)CCc1ccc(O)c(OC)c1 [8-shogaol]
- senolytic activity (ability to selectively decrease cell viability of senescent cells) [1]: only 6-shogaol and gingerenone A displayed senolytic activity

Structure (SMILES): CCCCCCCCC[C@H](O)CC(=O)CCc1ccc(O)c(OC)c1 [10-gingerol]
- senolytic activity (ability to selectively decrease cell viability of senescent cells) [1]: only 6-shogaol and gingerenone A displayed senolytic activity

Structure (SMILES): COc1cc(CC/C=C/C(=O)CCc2ccc(O)c(OC)c2)ccc1O [gingerenone A, Gingerenone A]
- senescent cell viability relative to proliferating cells ([1]; 20 μM, 48 h, p=0.04): significant decrease; also recorded: significantly decreased
- selectivity for senescent over proliferating cells ([1]; 48 h, 20 μM, compared to D+Q): higher selectivity
- senescent cell viability ([1]; 48 h): significantly decreased
- senolytic activity (ability to selectively decrease cell viability of senescent cells) [1]: displayed senolytic activity
- effect on proliferating cells [2]: did not show any significant effect
- level of IL-1β ([3]; 20 μM): increased
- level of IL-13 ([3]; 20 μM): increased
- level of IL-10 ([3]; 20 μM, multiplex ELISA (FIG. 12A)): increased
- level of IL-10 ([3]; V-Plex (FIG. 13A)): unchanged
- level of IL-8 ([3]; gingerenone A 20 μM, D+Q): increased
- secreted level of CCL2 (MCP-1) ([3]; gingerenone A 20 μM, D+Q): reduced
- secreted level of IL-6 ([3]; gingerenone A 20 μM, D+Q): reduced
- secreted level of IP-10 ([3]; gingerenone A 20 μM, D+Q, V-plex): reduced
- expression of anti-apoptotic protein Bcl-XL [4]: reduced
- levels of pro-apoptotic protein cleaved caspase-3 [4]: increase
- serum IL-5 ([5]; post treatment, unadjusted unpaired t-test vs vehicle): reduced
- serum IL-2 ([5]; ten days after termination): reduced
- serum concentration of beta-alanine [6]: did not increase
- serum concentration of choline [6]: did not increase
- AUC (in vivo): 1.25 ng·h/mL

Structure (SMILES): COc1cc(CCC(C)=O)ccc1O [zingerone]
- senolytic activity (ability to selectively decrease cell viability of senescent cells) [1]: only 6-shogaol and gingerenone A displayed senolytic activity
